These results are taken from patent publication US12617757B2, “Compounds and modules for inhibition of pre-miR-21 and their use in treatment of certain cancers” (University of Florida Research Foundation, Incorporated, priority 2019, dated 2026).

One assay deals with T1, RNase L (Homo sapiens, UniProt Q05823).
T1 sequence (Q05823 1-741): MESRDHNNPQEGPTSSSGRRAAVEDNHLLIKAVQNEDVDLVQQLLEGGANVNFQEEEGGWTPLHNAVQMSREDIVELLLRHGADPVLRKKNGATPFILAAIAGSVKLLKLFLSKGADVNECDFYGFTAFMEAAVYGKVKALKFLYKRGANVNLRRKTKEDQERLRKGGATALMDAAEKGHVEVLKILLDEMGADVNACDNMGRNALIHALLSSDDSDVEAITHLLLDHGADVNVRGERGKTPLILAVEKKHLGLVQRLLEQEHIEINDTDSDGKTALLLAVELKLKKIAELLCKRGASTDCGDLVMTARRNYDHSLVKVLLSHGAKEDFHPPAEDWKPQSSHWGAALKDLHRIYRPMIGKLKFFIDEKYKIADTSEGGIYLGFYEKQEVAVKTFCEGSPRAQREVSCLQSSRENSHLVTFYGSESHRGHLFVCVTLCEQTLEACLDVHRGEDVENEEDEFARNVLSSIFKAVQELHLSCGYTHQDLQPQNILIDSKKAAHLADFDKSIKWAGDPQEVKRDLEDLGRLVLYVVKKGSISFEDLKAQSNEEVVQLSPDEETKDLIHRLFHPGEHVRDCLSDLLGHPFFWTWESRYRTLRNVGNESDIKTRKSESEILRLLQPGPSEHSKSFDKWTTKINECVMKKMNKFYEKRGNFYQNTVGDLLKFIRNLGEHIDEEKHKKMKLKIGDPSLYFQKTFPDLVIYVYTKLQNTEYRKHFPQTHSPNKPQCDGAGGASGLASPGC
The assay is described as follows: In vitro fluorescence recovery assay with model RNA (RNase L activation). On the set-up: GST; made in house. Type of assay: biochemical. The method, then: In Vitro Fluorescent RNA Cleavage. A model RNA hairpin^15 labeled with a 5′ 6-Fluorescein (6FAM) and 3′ Black Hole Quencher (IQ4) (5′ 6FAM-[…]-3′ IQ4; 5′ FAM/3′ BHQ model RNA) (SEQ ID NO: 3) or a miR-21 Hairpin Precursor RNA labeled with a 5′ 6-Fluorescein (6FAM) and 3′ Black Hole Quencher (IQ4) (5′ 6FAM-[…] […]-3′ IQ4; 5′ FAM/3′ BHQ miR-21 Hairpin Precursor RNA) (SEQ ID NO: 4) was purchased from Chemgenes with HPLC purification. Solutions of RNA (100 nM) were folded at 65° C. for 5 min and slowly cooled to room temperature in 1×RNase L Buffer (25 mM Tris-HCl, pH 7.4, 100 mM KCl) without MgCl2, β-mercaptoethanol or ATP. After folding, the RNA was supplemented with 10 mM MgCl2, fresh 7 mM β-mercaptoethanol, and 50 μM of ATP. Next, 100 nM of RNase L, prepared as described previously^22, and various concentrations of screening compounds were prepared in 1×RNase L Buffer and added to the RNA. […] The samples were incubated at room temperature for 60 min after which the fluorescence intensity (Ex: 485 nm, Em: 525 nm) was measured using a SpectraMax M5 plate reader or Biotek FLx800 plate reader. The percentage change in fluorescence intensity, where enhancement of fluorescence intensity was indicative of RNA cleavage, was determined by calculating the percentage change in sample fluorescent signals relative to the untreated fluorescent signal (Fi, %). […]

The next assay relates to pre-miR-21. The assay is described as follows: RT-qPCR of mature miR-21 and pre-miR-21 levels in MDA-MB-231 cells. Type of assay: cell-based, human. To be noted: MDA-MB-231, RT-qPCR. The method, then:
Cell culture compound treatment and transfection. For treatment with compounds, stocks in DMSO or water were diluted in growth media and added to cells for 24-72 h. For transfection of plasmid DNA to overexpress the miR-21 hairpin precursor in pcDNA3.1 (Addgene 21114) or pcDNA3-RNaseL (R. H. Silverman, Cleveland Clinic^24) in 24-well plates, Lipofectamine 2000 was used according to the manufacturer's protocol. After transfection, the medium was removed and replaced with growth medium containing compound prepared as described above. For transfection of a control (Santa Cruz Biotechnology: sc-37007) or RNase L targeting siRNA (Santa Cruz Biotechnology: sc-45965), Lipofectamine RNAiMAX Reagent was used for transfection of oligonucleotides, including 2′-5′ A4, according to the manufacturer's protocol.
(In general: Quantitative PCR measures a nucleic acid by following its amplification.)

In a further assay the test system is pri-miR-21 RNA. The experiment in a line: In vitro Ribo-SNAP. Type of assay: biochemical. The conditions noted are these: dose responsive treatment. The method, then:
In vitro Ribo-SNAP. The pri-miR-21 RNA (1 μM) was folded as described above. Dilutions of cleaver compounds (Bleomycin A5 or 10) were pre-activated by the addition of 1 eq Fe^2+ and added to the folded RNA in a total volume of 20 μL. After 30 min and 60 min, an additional equivalent of Fe^2+ was added and then the reaction mixtures were incubated at 37° C. overnight. After ethanol precipitation and quantification by Nanodrop, reverse transcription was performed using SuperScript™ III Reverse Transcriptase (ThermoFisher Scientific) per the manufacturer's protocol using a 5′ ^32P-labeled forward primer (˜10,000 counts). The A, T, G and C sequencing ladders were generated by using a ratio of ddNTP/dNTP of 3:1. The RNA was digested by the addition of RNase A and RNase H and incubated at 37° C. for 30 min. Then, an equal volume of Loading Buffer (95% […], 50 mM EDTA, 0.05% (w/v) bromophenol blue, 0.05% (w/v) xylene cyanol) was added to each reaction. The final mixture was resolved on a denaturing 15% polyacrylamide gel.

A further assay concerns pri-miR-21. The experiment in a line: Ribo-SNAP-Map in MDA-MB-231 cells. Type of assay: cell-based, human. The method, then:
Ribo-SNAP-Map. The MDA-MB-231 cells were grown in 100 mm dishes to ˜70% confluency and treated with cleaving compound (10) for 6 h. Total RNA was then extracted by treatment with TRIzol (ThermoFisher Scientific) and quantified by Nanodrop. Approximately 10 μg of total RNA was used for reverse transcription with a pri-miR-21 specific primer (5′-[…]-3′; 2 pmol) (SEQ ID NO: 12) using Superscript III (SSIII; Life Technologies). Approximately of 10 μg RNA with 2 pmol of gene-specific primer and 1 μL 10 mM dNTP Mix in a total volume of 13 μL was incubated at 65° C. for 5 min and then placed in ice for 5 min. Next, 4 μL 5×First-Strand Buffer, 1 μL 0.1 M DTT, 1 μL RNaseOUT and 1 μL SuperScript™ III RT were added and the mixture was incubated at 50° C. for 1 h, followed by 85° C. for 10 min. After digestion with RNase A and RNase H, the remaining cDNA was purified using RNAClean XP beads (Beckman Coulter; 1.8 volumes of beads and 3 volumes of isopropanol).
The purified cDNA was ligated with a 3′ adapter (5′ Phosphate NNN-[…]-3′ Biotin) (SEQ ID NO: 13) by T4 RNA ligase 1 (New England BioLabs; NEB) following the manufacturer's recommended protocol (2 μL 10×T4 RNA ligase buffer, 1 μL of 1 mM ATP, 10 μL 50% PEG 8000, 5 μL cDNA, 1 μL of 20 μM ssDNA adaptor, and 1 μL of T4 RNA ligase). Then, the cDNA ligated to the adaptor was purified with RNAClean XP beads as described above. PCR amplification was performed with the ligated cDNA by using Phusion polymerase (NEB) with cycling conditions of 98° C. for 20 s, 64° C. for 20 s and 72° C. for 90 s and the following forward (5′-[…]-3′) (SEQ ID NO: 14) and reverse (5′-[…]-3′) (SEQ ID NO: 15) primers. The PCR products were separated on a denaturing 15% polyacrylamide gel and the target band was excised from the gel and ethanol precipitated. The purified DNA was ligated into a vector using NEB's PCR Cloning Kit per the manufacturer's protocol. Antibiotic-resistant colonies were selected and subjected to Sanger sequencing by Genewiz. The cleavage sites and percentage were determined by comparing the cleaver treated samples and non-treated samples.

The structures appear in SMILES notation.

For `CCOC(=O)C1=C(Nc2ccccc2)S/C(=C\c2ccc(OC)c(O)c2)C1=O` [Compound 3], the “RNase L activation, dose-responsive measurements” value at RNase L was “most active activator of RNase L”.
With `CCCN(CC(=O)N(CCC)CC(=O)N(CCC)CC(=O)N(CC(=O)NCCCCNCCCNC(=O)c1csc(-c2csc(CCNC(=O)C(NC(=O)C(C)[C@H](O)C(C)NC(=O)C(NC(=O)c3nc(C(CC(N)=O)NC[C@H](N)C(N)=O)nc(N)c3C)[C@@H](OC3OC(CO)C(O)C(O)C3OC3OC(CO)C(O)C(OC(N)=O)C3O)c3c[nH]cn3)C(C)O)n2)n1)Cc1cn(CCCNC(=O)CCCOc2ccc(-c3nc4cc(-c5ccc(N6CCN(C)CC6)cc5)ccc4[nH]3)cc2)nn1)C(=O)CN(Cc1cn(CCCNC(=O)CCCOc2ccc(-c3nc4cc(-c5ccc(N6CCN(C)CC6)cc5)ccc4[nH]3)cc2)nn1)C(C)=O` (stereo partly shown) [Compound 10], in the assay on pre-miR-21, the “effect on mature miR-21 levels” value was “decreases mature miR-21 levels”; the “effect on pre-miR-21 levels” value was “cleaved and decreased pre-miR-21 levels”. Also, the “RT stops induced in pri-miR-21” value in the assay with pri-miR-21 RNA was “induced an RT stop at the indicated sites”. For the same compound, the “reads that stop at the second A (3′)” value with pri-miR-21 (3/21 reads) worked out at 14%. In addition, the “reads that stop at the third A (3′)” value with pri-miR-21 (6/21 reads) was determined as 29%. For the same compound, in the assay with pri-miR-21 (12/21 reads), the “reads that stop at the first C (5′)” value is on record as 57%.
